Measured values as given in patent US20240293367A1, “METHODS OF TREATING DISORDERS WITH A […]” (Cybin IRL Limited, priority 2023, published 2024).

Test system: participants with MDD
Experiment: MADRS total score, response, remission and relapse in MDD participants (Phase I/IIa study)
Type: in vivo, human
From the text: Cohorts 1, 4, 5, and 6 of the study was comprised of participants with MDD. Cohorts 2, 3, and the relative BA cohort of the study were comprised of normal healthy volunteers (NHV). […] MDD participants had been on a stable dose of antidepressant medication for at least one month prior to screening with an inadequate response to that antidepressant medication as judged by the Investigator, and continued to receive their prescribed antidepressant throughout the course of the study.
Cohorts 4 and 5. For Cohorts 4 and 5, 12 participants each (24 participants total) were randomized in a 3:1 ratio to receive 12 mg of psilocin-d10 or matched placebo in a single dosing session on Day 1. Following a 21-day interval, all participants received a dose of 12 mg psilocin-d10 on Day 22 (second dose for participants originally randomized to psilocin-d10, first dose for participants randomized to placebo), and were followed to Day 42.
Cohort 6. For Cohort 6, 12 participants were randomized in a 3:1 ratio to receive 16 mg of psilocin-d10 or matched placebo in a single dosing session on Day 1. Following a 21-day interval, all participants received a dose of 16 mg psilocin-d10 on Day 22 (second dose for participants originally randomized to psilocin-d10, first dose for participants randomized to placebo), and were followed to Day 42. Given the availability of data and considering that the secondary endpoint was a change in baseline to Day 21 in MADRS, efficacy data presented herein considers the data cut off of Day 21 postdose. One participant had to be withdrawn from the study due to pregnancy.
The primary efficacy endpoint defined in the statistical analysis plan (SAP) is the change from baseline to Day 21 of the total Montgomery-Åsberg Depression Rating Scale (MADRS) score compared to placebo, therefore efficacy data presented herein considers the data cut off of Day 21 postdose. Mean total score and change from baseline on Montgomery-Åsberg Depression Rating Scale (MADRS) on days 1, 10, 17, 22, 31, 38, and 42 are presented as secondary efficacy endpoints.
The secondary objective of the study was to evaluate the efficacy of psilocin-d10 in treating symptoms of MDD as measured by the change from baseline to Day 21 of the MADRS total score in the Intent-to-Treat population, with data analyzed according to the treatment group each participant was randomized to receive. Data from participants in Cohorts 4, 5, and 6 randomized to placebo was pooled for analysis purposes (N=9). Data from participants in Cohorts 4, 5, and 6 randomized to 12 mg or 16 mg psilocin-d10 (N=27) was also pooled for analysis.
Data from the study was also analyzed according to dosage level of psilocin-d10. Data from participants in Cohorts 4, 5, and 6 randomized to placebo was pooled for analysis purposes (N=9). Data from participants in Cohorts 4 and 5 (treated with 12 mg psilocin-d10) was also pooled for analysis (N=18).
The rates of remission, response, and relapse were also evaluated within the study. […] Additionally, 20.8% (5 out of 24) of participants in the psilocin-do group (12 mg and 16 mg combined) were in remission (remitters) (defined as a MADRS score of ≤10) compared to 0% for placebo at Day 21. The same 5 participants who were in remission were also classified as responders. None of the participants relapsed at Day 21 compared to baseline.
The MADRS is a 10-item scale with ratings based on a clinical interview which moves from broadly phrased questions about symptoms to more detailed ones allowing a precise rating of severity. A rating scale from 0 to 6 is employed and the rater must decide whether the rating lies on defined scale steps (0, 2, 4, 6) or between them (1, 3, 5). The MADRS can be used for any time interval between ratings, be it weekly or otherwise, and the time interval should be recorded. […]

[1] = Day 21, 12 mg single dose, Cohorts 4 and 5
[2] = Day 21, 16 mg single dose, Cohort 6
[3] = Day 21, single dose, 12 and 16 mg pooled

[2H]C([2H])([2H])N(C([2H])([2H])[2H])C([2H])([2H])C([2H])([2H])c1c[nH]c2cccc(O)c12 [psilocin-d10, 3-(2-(bis(methyl-d3)amino)ethyl-1,1,2,2-d4)-1H-indol-4-ol]
mean reduction in baseline MADRS (10 days post first dose, 12 mg and 16 mg pooled): 55%
reduction in baseline MADRS (10 days post second dose): 66%
MADRS change from baseline, LS Mean (Std Err) for Day 42 (ANOVA [2], Placebo/active group (one dose Day 22)): −16.48 (3.50)
MADRS change from baseline, LS Mean (Std Err) for Day 42 (ANOVA [2], two doses, 12 and 16 mg pooled): −21.04 (2.24)
MADRS change from baseline, LS Mean (Std Err) for Day 42 (ANOVA [3], within Placebo/active group): −16.54 (2.89)
MADRS change from baseline, LS Mean (ANOVA at Day 21, 12 mg): −16.70
MADRS change from baseline, LS Mean (ANOVA at Day 21, 16 mg): −15.61
MADRS change from baseline, LS Mean (ANOVA at Day 42 (by dosage level), Placebo/active group (one dose Day 22)): −16.48
MADRS change from baseline, LS Mean (ANOVA at Day 42, two 12 mg doses): −19.83
MADRS change from baseline, LS Mean (ANOVA at Day 42, two 16 mg doses): −23.41
MADRS change from baseline, LS Mean (Std Err) for Day 21 (ANOVA, 12 and 16 mg pooled): −16.33 (1.30)
MADRS mean total score (Day 10 after single dose (baseline 32.2)): 17.7
participants in remission (Day 21, 12 mg (3 out of 15)): 20%
participants with response (Day 21, 12 mg (8 out of 15)): 53.3%
participants in remission (MADRS ≤10) (Day 21, 12 mg and 16 mg combined (5 out of 24)): 20.8%
participants with response (≥50% reduction from baseline MADRS) (Day 21, 12 mg and 16 mg combined (12 out of 24)): 50%
MADRS total score, Change from Baseline, Mean [1]: −17.0
MADRS total score, Change from Baseline, Median [1]: −17.0
MADRS total score, Observed, Mean [1]: 15.9
MADRS total score, Observed, Median [1]: 14.0
participants in remission (Day 21, 16 mg (2 out of 9)): 22.2%
participants with response (Day 21, 16 mg (4 out of 9)): 44.4%
MADRS total score, Change from Baseline, Mean [2]: −14.9
MADRS total score, Change from Baseline, Median [2]: −17.0
MADRS total score, Observed, Mean [2]: 16.6
MADRS total score, Observed, Median [2]: 18.0
Relapse - No (Day 21, Cohort 4, 12 mg): 7 (100.0) n (%)
Relapse - Yes (Day 21, Cohort 4, 12 mg): 0 (0.0) n (%)
Remission (MADRS ≤10) - Yes (Day 21, Cohort 4, 12 mg): 2 (28.6) n (%)
Remission - No (Day 21, Cohort 4, 12 mg): 5 (71.4) n (%)
Response (≥50% reduction from baseline MADRS) - Yes (Day 21, Cohort 4, 12 mg): 4 (57.1) n (%)
Response - No (Day 21, Cohort 4, 12 mg): 3 (42.9) n (%)
Relapse - No (Day 21, Cohort 5, 12 mg): 8 (100.0) n (%)
Relapse - Yes (Day 21, Cohort 5, 12 mg): 0 (0.0) n (%)
Remission (MADRS ≤10) - Yes (Day 21, Cohort 5, 12 mg): 1 (12.5) n (%)
Remission - No (Day 21, Cohort 5, 12 mg): 7 (87.5) n (%)
Response (≥50% reduction from baseline MADRS) - Yes (Day 21, Cohort 5, 12 mg): 4 (50.0) n (%)
Response - No (Day 21, Cohort 5, 12 mg): 4 (50.0) n (%)
Relapse - No (Day 21, Cohort 6, 16 mg): 9 (100.0) n (%)
Relapse - Yes (Day 21, Cohort 6, 16 mg): 0 (0.0) n (%)
Remission (MADRS ≤10) - Yes (Day 21, Cohort 6, 16 mg): 2 (22.2) n (%)
Remission - No (Day 21, Cohort 6, 16 mg): 7 (77.8) n (%)
Response (≥50% reduction from baseline MADRS) - Yes (Day 21, Cohort 6, 16 mg): 4 (44.4) n (%)
Response - No (Day 21, Cohort 6, 16 mg): 5 (55.6) n (%)
Remission (MADRS ≤10) - Yes (Day 21, Cohorts 4, 5 and 6, pooled 12 mg and 16 mg): 5 (20.8) n (%)
Relapse - No (Day 21, Cohorts 4 and 5, 12 mg): 15 (100.0) n (%)
Relapse - Yes (Day 21, Cohorts 4 and 5, 12 mg): 0 (0.0) n (%)
Remission (MADRS ≤10) - Yes (Day 21, Cohorts 4 and 5, 12 mg): 3 (20.0) n (%)
Remission - No (Day 21, Cohorts 4 and 5, 12 mg): 12 (80.0) n (%)
Response (≥50% reduction from baseline MADRS) - Yes (Day 21, Cohorts 4 and 5, 12 mg): 8 (53.3) n (%)
Response - No (Day 21, Cohorts 4 and 5, 12 mg): 7 (46.7) n (%)
Relapse - No (Day 21, pooled 12 mg and 16 mg): 24 (100.0) n (%)
Relapse - Yes (Day 21, pooled 12 mg and 16 mg): 0 (0.0) n (%)
Remission - No (Day 21, pooled 12 mg and 16 mg): 19 (79.2) n (%)
Response (≥50% reduction from baseline MADRS) - Yes (Day 21, pooled 12 mg and 16 mg): 12 (50.0) n (%)
Response - No (Day 21, pooled 12 mg and 16 mg): 12 (50.0) n (%)
MADRS total score, Change from Baseline, Mean [3]: −16.2
MADRS total score, Change from Baseline, Median [3]: −17.0
MADRS total score, Observed, Mean [3]: 16.1
MADRS total score, Observed, Median [3]: 16.5
MADRS, Difference in LS Means, 12 mg compared to Cohort 6 (16 mg) (Day 21, 95% CI (−12.2, 10.1), P 0.8421): −1.09
MADRS, Difference in LS Means, 12 mg compared to placebo (Day 21, 95% CI (−20.5, −7.7), P 0.0001): −14.11
MADRS, Difference in LS Means, 16 mg compared to placebo (Day 21, 95% CI (−22.3, −3.7), P 0.0080): −12.99
mean decrease from baseline MADRS (Day 21 after single dose): 50%
MADRS mean total score (Day 31 (10 days post second dose)): 6.7
Relapse - No (Day 42, Cohort 4, two 12 mg doses): 7 (100.0) n (%)
